Data set [1] concerns the target Serine/threonine-protein kinase B-raf (Homo sapiens) (UniProt P15056). As to the kind of experiment: Binding affinity to wild-type human partial length BRAF (S429 to E741 residues) expressed in mammalian expression system assessed as fraction of unbound kinase to substrate at 1 uM after 1 hr by KinomeScan assay.
The subject of data set [2] is A549. As to the kind of experiment: Antiproliferative activity against human A549 cells after 72 hrs by CellTiter-Glo assay. The format is functional, cell-based.
Data set [3] deals with RT-112. Put plainly: Antiproliferative activity against human RT112 cells after 72 hrs by CellTiter-Glo assay. The format is functional, cell-based. On the technique in general: Cellular ATP, detected with luciferase, serves as a proxy for viable cell number.
Data set [4] deals with T1, Tyrosine-protein kinase Mer (Homo sapiens) (UniProt Q12866).
T1 sequence (whole entry): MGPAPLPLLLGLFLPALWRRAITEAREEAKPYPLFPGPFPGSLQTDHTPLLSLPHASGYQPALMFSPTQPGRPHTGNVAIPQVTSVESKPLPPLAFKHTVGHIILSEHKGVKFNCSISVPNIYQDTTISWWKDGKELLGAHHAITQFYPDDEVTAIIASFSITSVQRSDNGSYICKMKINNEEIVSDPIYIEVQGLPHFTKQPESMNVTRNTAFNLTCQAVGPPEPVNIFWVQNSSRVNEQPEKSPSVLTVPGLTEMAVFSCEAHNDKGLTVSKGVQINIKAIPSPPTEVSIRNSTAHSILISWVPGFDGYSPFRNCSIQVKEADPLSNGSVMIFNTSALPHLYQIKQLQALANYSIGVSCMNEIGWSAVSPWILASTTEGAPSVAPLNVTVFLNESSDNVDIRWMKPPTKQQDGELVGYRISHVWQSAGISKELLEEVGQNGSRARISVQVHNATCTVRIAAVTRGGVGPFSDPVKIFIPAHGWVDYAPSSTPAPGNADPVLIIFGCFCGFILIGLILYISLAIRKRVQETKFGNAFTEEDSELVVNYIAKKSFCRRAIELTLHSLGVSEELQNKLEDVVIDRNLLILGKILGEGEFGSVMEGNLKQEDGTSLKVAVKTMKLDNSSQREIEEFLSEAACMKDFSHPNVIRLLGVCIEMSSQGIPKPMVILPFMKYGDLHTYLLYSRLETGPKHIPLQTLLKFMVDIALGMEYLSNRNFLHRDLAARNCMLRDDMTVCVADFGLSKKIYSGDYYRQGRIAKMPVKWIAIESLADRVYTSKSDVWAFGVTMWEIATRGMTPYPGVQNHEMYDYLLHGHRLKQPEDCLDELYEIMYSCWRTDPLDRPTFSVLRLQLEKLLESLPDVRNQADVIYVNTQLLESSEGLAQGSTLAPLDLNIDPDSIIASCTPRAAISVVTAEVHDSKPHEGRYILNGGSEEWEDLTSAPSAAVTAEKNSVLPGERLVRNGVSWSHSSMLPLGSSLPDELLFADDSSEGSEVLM
Put plainly: Inhibition of recombinant GST-tagged human Mer (578 to 872 residues) cytoplasmic domain expressed in Baculovirus system using poly (Glu-Ala-Tyr) peptide as substrate after 1.5 hrs by ELISA. For orientation: An ELISA detects its analyte on a solid surface through an enzyme-linked reagent.

Data set [5] addresses Tyrosine-protein kinase receptor UFO (Homo sapiens) (UniProt P30530). As to the kind of experiment: Binding affinity to human AXL (R497 to Y821 residues) expressed in bacterial expression system assessed as fraction of unbound kinase to substrate at 10 uM after 1 hr by KinomeScan assay.
For data set [6], the target named is T2, Aurora kinase A (Homo sapiens) (UniProt O14965).
T2 sequence (whole entry): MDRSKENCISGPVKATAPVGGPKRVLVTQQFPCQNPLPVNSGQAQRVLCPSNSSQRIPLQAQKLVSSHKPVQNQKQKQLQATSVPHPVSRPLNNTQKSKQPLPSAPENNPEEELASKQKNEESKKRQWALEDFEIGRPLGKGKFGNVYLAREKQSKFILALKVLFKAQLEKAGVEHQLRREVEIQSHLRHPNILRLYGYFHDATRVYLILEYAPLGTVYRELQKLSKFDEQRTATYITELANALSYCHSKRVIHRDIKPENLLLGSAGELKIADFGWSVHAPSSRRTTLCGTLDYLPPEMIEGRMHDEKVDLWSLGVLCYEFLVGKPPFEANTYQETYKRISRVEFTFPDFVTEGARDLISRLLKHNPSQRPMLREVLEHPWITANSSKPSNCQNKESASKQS
Put plainly: Binding affinity to wild-type human partial length AURKA (E122 to K401 residues) expressed in mammalian expression system assessed as fraction of unbound kinase to substrate at 10 uM after 1 hr by KinomeScan assay.

The target of data set [7] is Hepatocyte growth factor receptor (Homo sapiens) (UniProt P08581). As to the kind of experiment: Binding affinity to human MET (D1010 to S1367 residues) expressed in bacterial expression system assessed as fraction of unbound kinase to substrate at 0.1 uM after 1 hr by KinomeScan assay.
Sequence of Hepatocyte growth factor receptor (Homo sapiens) (P08581 whole entry, the tested form may be a part): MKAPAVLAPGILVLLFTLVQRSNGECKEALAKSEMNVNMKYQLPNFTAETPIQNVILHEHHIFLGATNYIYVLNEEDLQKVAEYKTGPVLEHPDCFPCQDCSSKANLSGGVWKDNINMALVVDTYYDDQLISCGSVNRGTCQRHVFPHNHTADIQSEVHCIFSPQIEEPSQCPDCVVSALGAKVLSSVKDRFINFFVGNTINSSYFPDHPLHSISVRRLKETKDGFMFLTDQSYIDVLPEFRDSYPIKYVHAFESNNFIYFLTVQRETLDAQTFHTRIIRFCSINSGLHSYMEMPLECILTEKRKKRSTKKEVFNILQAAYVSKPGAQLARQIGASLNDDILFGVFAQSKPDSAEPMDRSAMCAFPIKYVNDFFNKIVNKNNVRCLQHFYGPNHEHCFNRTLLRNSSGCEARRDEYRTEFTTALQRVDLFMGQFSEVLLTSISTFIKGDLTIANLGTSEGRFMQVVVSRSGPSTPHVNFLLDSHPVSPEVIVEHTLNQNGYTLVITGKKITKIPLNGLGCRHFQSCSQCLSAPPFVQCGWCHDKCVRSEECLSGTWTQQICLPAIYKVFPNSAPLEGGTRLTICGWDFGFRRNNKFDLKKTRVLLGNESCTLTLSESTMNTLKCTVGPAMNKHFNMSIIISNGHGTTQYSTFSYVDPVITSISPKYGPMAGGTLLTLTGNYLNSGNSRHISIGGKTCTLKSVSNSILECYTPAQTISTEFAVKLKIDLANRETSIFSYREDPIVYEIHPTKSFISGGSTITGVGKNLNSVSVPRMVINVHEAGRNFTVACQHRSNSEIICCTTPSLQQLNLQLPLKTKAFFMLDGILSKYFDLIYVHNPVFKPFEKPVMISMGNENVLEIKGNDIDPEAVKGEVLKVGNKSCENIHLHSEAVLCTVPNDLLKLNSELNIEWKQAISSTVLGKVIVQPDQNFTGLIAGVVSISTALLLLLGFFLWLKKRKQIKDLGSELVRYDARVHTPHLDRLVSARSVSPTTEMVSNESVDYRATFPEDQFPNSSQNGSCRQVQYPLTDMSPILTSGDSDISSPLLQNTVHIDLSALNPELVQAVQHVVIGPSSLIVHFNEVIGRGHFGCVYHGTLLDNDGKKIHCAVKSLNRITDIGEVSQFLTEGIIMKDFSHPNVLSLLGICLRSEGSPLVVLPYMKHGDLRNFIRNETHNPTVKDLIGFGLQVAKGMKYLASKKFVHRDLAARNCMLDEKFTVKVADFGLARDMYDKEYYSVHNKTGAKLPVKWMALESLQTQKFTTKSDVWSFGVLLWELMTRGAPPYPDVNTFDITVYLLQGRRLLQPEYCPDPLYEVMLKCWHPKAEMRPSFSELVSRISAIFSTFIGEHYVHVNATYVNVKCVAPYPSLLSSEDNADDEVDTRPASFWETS
The target in data set [8] is T3, Tyrosine-protein kinase Mer (Homo sapiens, UniProt Q12866).
T3 sequence (Q12866 whole entry): T1 sequence (whole entry)
Put plainly: Inhibition of recombinant GST-tagged human Mer (578 to 872 residues) cytoplasmic domain expressed in Baculovirus system using poly (Glu-Ala-Tyr) peptide as substrate after 5 mins in presence of ADP by fluorescence analysis.

Data set [9] addresses T1, Tyrosine-protein kinase Mer (Homo sapiens). As to the kind of experiment: Binding affinity to wild-type partial length human MER (R557 to L884 residues) expressed in bacterial expression system assessed as fraction of unbound kinase to substrate at 10 uM after 1 hr by KinomeScan assay.
Data set [10] shares this target. As to the kind of experiment: Binding affinity to wild-type partial length human MER (R557 to L884 residues) expressed in bacterial expression system assessed as fraction of unbound kinase to substrate at 1 uM after 1 hr by KinomeScan assay.
Data set [11] concerns the target Tyrosine-protein kinase ABL1 (Homo sapiens) (UniProt P00519). Put plainly: Binding affinity to human wild type ABL1 (229 to 512 residues) expressed in mammalian expression system assessed as fraction of unbound kinase to substrate at 0.1 uM after 1 hr by KinomeScan assay.
Data set [12] is filed under the species Homo sapiens. Put plainly: Antiproliferative activity against human MGHU3 cells after 72 hrs by CellTiter-Glo assay. In kind it is functional, cell-based.
The species entered for data set [13] is Homo sapiens. Put plainly: Selectivity ratio of IC50 for recombinant GST-tagged human Tyro3 (451 to 890 residues) cytoplasmic domain to IC50 for recombinant His-tagged human Axl (473 to end residues) cytoplasmic domain.
The species named for data set [14] is Homo sapiens. As to the kind of experiment: Selectivity ratio of IC50 for recombinant GST-tagged human Mer (578 to 872 residues) cytoplasmic domain to IC50 for recombinant His-tagged human Axl (473 to end residues) cytoplasmic domain.
Data set [15] is described as follows: Drug localization in nucleus of human A549 cells at 10 uM after 24 hrs by NanoSIMS analysis. The conditions noted are these: a549, 24 h. In kind it is ADME, subcellular.
Data set [16] is described as follows: Drug localization in nucleus of human MGHU3 cells at 10 uM after 24 hrs by NanoSIMS analysis. In kind it is ADME, subcellular. The conditions noted are these: mghu3, 24 h.
The nature of data set [17]: Drug localization in cytoplasm of human A549 cells at 10 uM after 24 hrs by NanoSIMS analysis. Particulars: a549, 24 h. In kind it is ADME, subcellular.
The nature of data set [18]: Solubility of the compound in 0.2% DMSO. The format is physicochemical.

The source made the active and inactive calls. The calls are words filed in the database; no cut-off is given here.

As usually defined, the IC50 is the point on the concentration scale where inhibition reaches its midpoint.

Sequence of Tyrosine-protein kinase ABL1 (Homo sapiens) (P00519 whole entry, the tested form may be a part): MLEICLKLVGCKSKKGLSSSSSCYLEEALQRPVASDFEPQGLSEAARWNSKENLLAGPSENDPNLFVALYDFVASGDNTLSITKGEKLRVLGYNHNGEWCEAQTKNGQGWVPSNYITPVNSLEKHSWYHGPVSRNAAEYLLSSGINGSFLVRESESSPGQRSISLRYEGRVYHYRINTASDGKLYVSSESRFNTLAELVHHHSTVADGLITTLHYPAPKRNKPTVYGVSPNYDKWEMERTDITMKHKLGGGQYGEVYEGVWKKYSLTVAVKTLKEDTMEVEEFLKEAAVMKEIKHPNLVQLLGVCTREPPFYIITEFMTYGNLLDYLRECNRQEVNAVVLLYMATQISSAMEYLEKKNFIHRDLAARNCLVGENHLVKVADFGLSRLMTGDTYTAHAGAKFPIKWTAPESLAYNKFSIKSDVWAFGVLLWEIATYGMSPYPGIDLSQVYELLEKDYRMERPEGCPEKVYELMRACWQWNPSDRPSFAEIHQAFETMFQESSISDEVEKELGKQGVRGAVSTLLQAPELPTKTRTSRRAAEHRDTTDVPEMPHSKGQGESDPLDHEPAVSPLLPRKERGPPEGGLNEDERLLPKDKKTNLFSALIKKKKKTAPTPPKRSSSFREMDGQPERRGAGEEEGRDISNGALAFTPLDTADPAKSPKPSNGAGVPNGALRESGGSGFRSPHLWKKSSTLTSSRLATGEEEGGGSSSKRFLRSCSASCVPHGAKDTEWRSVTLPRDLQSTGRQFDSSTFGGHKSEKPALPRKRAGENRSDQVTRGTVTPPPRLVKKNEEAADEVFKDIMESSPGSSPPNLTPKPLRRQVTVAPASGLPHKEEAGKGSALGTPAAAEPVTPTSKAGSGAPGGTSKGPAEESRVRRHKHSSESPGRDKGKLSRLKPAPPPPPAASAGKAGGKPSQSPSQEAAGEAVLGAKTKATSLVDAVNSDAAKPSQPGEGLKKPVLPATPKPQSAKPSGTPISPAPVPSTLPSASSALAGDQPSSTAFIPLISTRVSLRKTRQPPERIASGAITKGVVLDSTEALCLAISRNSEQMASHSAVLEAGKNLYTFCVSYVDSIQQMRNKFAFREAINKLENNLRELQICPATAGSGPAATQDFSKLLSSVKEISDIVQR
Sequence of Serine/threonine-protein kinase B-raf (Homo sapiens) (P15056 whole entry, the tested form may be a part): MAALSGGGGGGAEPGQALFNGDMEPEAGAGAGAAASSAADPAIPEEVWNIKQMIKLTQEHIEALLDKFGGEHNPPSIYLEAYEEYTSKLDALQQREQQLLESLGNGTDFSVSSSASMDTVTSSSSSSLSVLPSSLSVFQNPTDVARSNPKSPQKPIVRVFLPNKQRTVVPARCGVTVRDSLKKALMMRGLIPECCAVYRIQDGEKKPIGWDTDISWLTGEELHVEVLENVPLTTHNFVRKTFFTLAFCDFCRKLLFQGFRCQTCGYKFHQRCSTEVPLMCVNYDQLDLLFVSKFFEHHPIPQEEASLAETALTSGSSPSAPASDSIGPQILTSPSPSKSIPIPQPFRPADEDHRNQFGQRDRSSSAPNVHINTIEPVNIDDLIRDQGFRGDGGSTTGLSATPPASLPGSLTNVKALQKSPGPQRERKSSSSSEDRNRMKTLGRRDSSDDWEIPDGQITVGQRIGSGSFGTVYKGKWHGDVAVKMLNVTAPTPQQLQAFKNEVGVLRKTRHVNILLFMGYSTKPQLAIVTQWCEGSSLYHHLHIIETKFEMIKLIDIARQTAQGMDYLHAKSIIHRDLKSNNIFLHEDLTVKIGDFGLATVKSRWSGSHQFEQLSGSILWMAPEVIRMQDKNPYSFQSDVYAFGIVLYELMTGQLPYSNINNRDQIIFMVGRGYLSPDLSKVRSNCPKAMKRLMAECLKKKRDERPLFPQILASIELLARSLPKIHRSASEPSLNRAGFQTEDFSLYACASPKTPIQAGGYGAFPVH
Sequence of Tyrosine-protein kinase receptor UFO (Homo sapiens) (P30530 whole entry, the tested form may be a part): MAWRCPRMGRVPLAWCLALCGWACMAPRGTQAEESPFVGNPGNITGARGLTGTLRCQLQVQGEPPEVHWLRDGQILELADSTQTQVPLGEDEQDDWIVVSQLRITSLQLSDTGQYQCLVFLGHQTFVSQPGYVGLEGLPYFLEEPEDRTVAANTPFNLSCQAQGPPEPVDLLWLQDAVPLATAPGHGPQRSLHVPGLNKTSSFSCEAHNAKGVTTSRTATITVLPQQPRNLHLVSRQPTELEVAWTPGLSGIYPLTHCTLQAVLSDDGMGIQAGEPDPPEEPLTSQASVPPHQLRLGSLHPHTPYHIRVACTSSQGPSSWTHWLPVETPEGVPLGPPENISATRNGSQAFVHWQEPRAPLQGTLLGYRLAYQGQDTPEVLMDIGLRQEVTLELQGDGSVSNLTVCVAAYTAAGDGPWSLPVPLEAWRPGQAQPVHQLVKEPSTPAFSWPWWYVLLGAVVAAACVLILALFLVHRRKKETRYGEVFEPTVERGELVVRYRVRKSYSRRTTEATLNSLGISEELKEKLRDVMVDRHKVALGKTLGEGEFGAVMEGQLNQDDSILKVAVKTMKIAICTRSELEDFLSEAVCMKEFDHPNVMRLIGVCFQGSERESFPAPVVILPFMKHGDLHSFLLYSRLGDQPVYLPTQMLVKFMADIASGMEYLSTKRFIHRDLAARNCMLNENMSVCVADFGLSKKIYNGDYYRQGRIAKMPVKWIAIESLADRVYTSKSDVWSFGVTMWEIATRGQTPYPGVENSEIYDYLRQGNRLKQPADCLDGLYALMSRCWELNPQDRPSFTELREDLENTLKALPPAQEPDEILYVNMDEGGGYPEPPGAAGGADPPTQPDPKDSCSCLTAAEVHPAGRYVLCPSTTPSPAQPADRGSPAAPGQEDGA

As for `Cc1cnc2[nH]cnc2c1Oc1ccc(NC(=O)c2cccn(-c3ccc(F)cc3)c2=O)cc1F`, the Activity in data set [1] was found to be 2%; in data set [5], 90.1%; in data set [6], 41%; in [7], 54%; in data set [9], 99.1%; in data set [10], 78%. In addition, the Activity in data set [11] came to 1%. Also, the outcome in data set [2], in data set [3] and in data set [12] was inactive. Moreover, the inhibition entry in [4] was “inactive”. Besides, in [8], the IC50 is more than 100000 nM.
`O=C(Nc1ccc(Oc2ccnc3[nH]cnc23)c(F)c1)c1cccn(-c2ccc(F)cc2)c1=O`: the Activity came to 12% in [1]; 93.3% in [5]; 13% in [6]; 83% in [7]; 99.6% in data set [9]; 99.3% in [10]. Also, the Activity in [11] is 2%. For the same molecule, the outcome in data set [2], in [3] and in data set [12] was inactive. Moreover, the Ratio IC50 in data set [13] and in data set [14] was 120 to 900 each time. Further, the inhibition result in [4] was “Active”. In addition, in data set [8], the IC50 was found to be 90 nM.
As to `CC(C)c1nc2c(Oc3ccc(NC(=O)c4cccn(-c5ccc(F)cc5)c4=O)cc3F)ccnc2[nH]1`, the Activity in data set [1] stood at 8%; in data set [5], 89%; in data set [6] it was 12%; in [7] it was 83%; in [9] it was 99.1%; in [10], 99.6%. Besides, in data set [11], the Activity was determined as 1%. Further, the outcome in data set [2], in [3] and in [12] was inactive. The Drug uptake result in data set [15], in data set [16] and in data set [17] was “Active” throughout. The inhibition result in [4] is “Active”. For the same molecule, the IC50 in data set [8] was 40 nM.
For `O=C(Nc1ccc(Oc2c(Br)cnc3[nH]cnc23)c(F)c1)c1cccn(-c2ccc(F)cc2)c1=O`, the Activity in data set [1] amounted to 0%; in [5] it was 90.4%; in [6] it was 45%; in [7], 12%; in data set [9] it was 98.2%; in data set [10], 60%. Further, in data set [11], the Activity amounted to 0%. In addition, in [4], the inhibition entry was “inactive”. Moreover, the IC50 in [8] amounted to 9 nM. The solubility result in data set [18] was “Insoluble”.
